From US20230234948A1, “CYCLOPROPYL DIHYDROQUINOLINE SULFONAMIDE COMPOUNDS” (AMGEN INC., priority 2020, published 2023) come the findings set out here.

The IC50 is the midpoint of a concentration-inhibition curve.

Series [1] addresses T1, Human NaV1.7 (Homo sapiens, UniProt Q15858).
T1 construct: expressed in transfected cells; host or cells: Spiking HEK cells (without Kir2.1 transfection)
As to the kind of experiment: Ionworks Barracuda (IWB) automated patch clamp assay. The format is cell-based. The conditions noted are these: human NaV1.7 in HEK cells, population patch-clamp, state- and use-dependent voltage protocol; read-out: hNaV1.7 IWB-U IC50. The protocol:
Ionworks Barracuda (IWB) Automated Patch Clamp Assay (Same Protocol for Both Human and Mouse)
Human NaV1.7 currents were recorded in population patch-clamp mode with the IWB automated electrophysiology system (Molecular Devices, LLC, Sunnyvale, Calif.). Spiking HEK cells (without Kir2.1 transfection) were cultured and prepared for recordings as previously described for IonWorks Quattro testing^1. The external solution consisted of the following (in mM): NaCl 140, KCl 5, CaCl2 2, MgCl2 1, HEPES 10, and glucose 11, pH 7.4, with N-methyl-D-glucamine at 320 mOsmol. […] From a holding potential of −110 mV, currents were elicited by a train of 26 depolarizations of 150 ms duration to −20 mV at a frequency of 5 Hz. Cells were then clamped to −20 mV for a period of 4 minutes in the presence of a single concentration of test compound. Following this compound incubation period, cells were clamped to −110 mV for three seconds to recover unbound channels and put through the same 26 pulse voltage protocol as above. Peak inward current during the 26th pulse to −20 mV in the presence of compound was divided by the peak inward current evoked by the 26th pulse to −20 mV in the absence of compound to determine percent inhibition. Concentration-response curves of percent inhibition as a function of concentration were generated to calculate IC50 values as described in Kornecook, T. J.; Yin, R.; Altmann, S.; et al. Pharmacologic Characterization of AMG8379, a Potent and Selective Small Molecule Sulfonamide Antagonist of the Voltage-Gated Sodium Channel NaV1. 7.
The potency of the compounds of the present invention were evaluated on human NaV1.7 channels using the above described IonWorks Barracuda automated electrophysiology platform that evaluates the ability of compounds to block sodium conductance through NaV1.7 channels. A voltage-protocol that prosecutes both state-dependent as well as use-dependent inhibition was used as these modes of action are thought to be more relevant for the native state of NaV1.7 channels in pain sensing neurons in vivo.
For orientation: In patch-clamp work, channel activity is measured electrically.

Series [2] deals with CYP3A4. As to the kind of experiment: Human CYP 3A4 induction assay (mRNA, cryopreserved human hepatocytes). Type of series: in vitro ADME. The conditions noted are these: 10 uM test compound, 72 hours, percent of control (rifampin positive control). The protocol: Human CYP 3A4 Induction Assay
Cryopreserved human hepatocytes were seeded in 96-well collagen coated plates at 70,000 cells per well in hepatocyte plating media (HPM, final concentrations: 1× Dulbecco's Modified Eagle's Medium, 0.1 μM dexamethasone, 10% fetal bovine serum, 1×ITS, 1×PSG) followed by incubation at 37° C. under 5% CO2 and 90% relative humidity for 2 days to allow hepatocytes to form a confluent layer. On Day 3, hepatocytes were treated with either test compound or rifampin (20 μM, positive control for CYP3A induction) prepared in hepatocyte incubation media ((HIM, final concentrations: 1× William's Medium E, 0.1 μM dexamethasone, 1×ITS, 1×PSG). Treatment was performed for 72 hours with either 2 concentrations (2 μM or 10 μM) or a range of concentrations (0.001 μM to 100 μM) of the test compound to obtain full dose-response curve. Fresh media containing the relevant concentrations of the test compound was replaced every day until the samples were processed. After 72 hours of incubation, samples were processed for mRNA analysis using bDNA technology using manufacturer's instructions (Affymetrix, Fremont, Calif.). Cell viability was tested at the end of the experiment using MTT assay kit (Roche Diagnostics, Basel, Switzerland). Data was analyzed and presented as percent of control (POC) and Emax and EC50 obtained when appropriate according to guidance from Center for Drug Evaluation and Research (CDER), 2006, Guidance for Industry, Drug Interaction Studies—Study Design, Data Analysis, and Implications for Dosing and Labeling.
Cryopreserved human hepatocytes were seeded in 96-well collagen coated plates at 70,000 cells per well in hepatocyte plating media (HPM, final concentrations: 1× Dulbecco's Modified Eagle's Medium, 0.1 μM dexamethasone, 10% fetal bovine serum, 1×ITS, 1×PSG) followed by incubation at 37° C. under 5% CO2 and 90% relative humidity for 2 days to allow hepatocytes to form a confluent layer. On Day 3, hepatocytes were treated with either test compound or rifampin (20 μM, positive control for CYP3A induction) prepared in hepatocyte incubation media ((HIM, final concentrations: 1× William's Medium E, 0.1 μM dexamethasone, 1×ITS, 1×PSG). Treatment was performed for 72 hours with either 2 concentrations (2 μM or 10 μM) or a range of concentrations (0.001 μM to 100 μM) of the test compound to obtain full dose-response curve. Fresh media containing the relevant concentrations of the test compound was replaced every day until the samples were processed. After 72 hours of incubation, samples were processed for mRNA analysis using bDNA technology using manufacturer's instructions (Affymetrix, Fremont, Calif.). Cell viability was tested at the end of the experiment using MTT assay kit (Roche Diagnostics, Basel, Switzerland). Data was analyzed and presented as percent of control (POC) and Emax and EC50 obtained when appropriate, as described in Halladay, J. et al, 2012, An “all-inclusive” 96-well cytochrome P450 induction method: Measuring enzyme activity, mRNA levels, protein levels, and cytotoxicity from one well using cryopreserved human hepatocytes, Pharmacological and Toxicological Methods, 66:270-275.
The cytochrome P450 (CYP) is a well-known superfamily of enzymes that are responsible for the oxidative and reductive metabolic transformation of medications used in clinical practice. In addition, the CYP enzymes are commonly associated with causing many clinically relevant drug-drug interactions. […]

T1 sequence (Q15858 whole entry): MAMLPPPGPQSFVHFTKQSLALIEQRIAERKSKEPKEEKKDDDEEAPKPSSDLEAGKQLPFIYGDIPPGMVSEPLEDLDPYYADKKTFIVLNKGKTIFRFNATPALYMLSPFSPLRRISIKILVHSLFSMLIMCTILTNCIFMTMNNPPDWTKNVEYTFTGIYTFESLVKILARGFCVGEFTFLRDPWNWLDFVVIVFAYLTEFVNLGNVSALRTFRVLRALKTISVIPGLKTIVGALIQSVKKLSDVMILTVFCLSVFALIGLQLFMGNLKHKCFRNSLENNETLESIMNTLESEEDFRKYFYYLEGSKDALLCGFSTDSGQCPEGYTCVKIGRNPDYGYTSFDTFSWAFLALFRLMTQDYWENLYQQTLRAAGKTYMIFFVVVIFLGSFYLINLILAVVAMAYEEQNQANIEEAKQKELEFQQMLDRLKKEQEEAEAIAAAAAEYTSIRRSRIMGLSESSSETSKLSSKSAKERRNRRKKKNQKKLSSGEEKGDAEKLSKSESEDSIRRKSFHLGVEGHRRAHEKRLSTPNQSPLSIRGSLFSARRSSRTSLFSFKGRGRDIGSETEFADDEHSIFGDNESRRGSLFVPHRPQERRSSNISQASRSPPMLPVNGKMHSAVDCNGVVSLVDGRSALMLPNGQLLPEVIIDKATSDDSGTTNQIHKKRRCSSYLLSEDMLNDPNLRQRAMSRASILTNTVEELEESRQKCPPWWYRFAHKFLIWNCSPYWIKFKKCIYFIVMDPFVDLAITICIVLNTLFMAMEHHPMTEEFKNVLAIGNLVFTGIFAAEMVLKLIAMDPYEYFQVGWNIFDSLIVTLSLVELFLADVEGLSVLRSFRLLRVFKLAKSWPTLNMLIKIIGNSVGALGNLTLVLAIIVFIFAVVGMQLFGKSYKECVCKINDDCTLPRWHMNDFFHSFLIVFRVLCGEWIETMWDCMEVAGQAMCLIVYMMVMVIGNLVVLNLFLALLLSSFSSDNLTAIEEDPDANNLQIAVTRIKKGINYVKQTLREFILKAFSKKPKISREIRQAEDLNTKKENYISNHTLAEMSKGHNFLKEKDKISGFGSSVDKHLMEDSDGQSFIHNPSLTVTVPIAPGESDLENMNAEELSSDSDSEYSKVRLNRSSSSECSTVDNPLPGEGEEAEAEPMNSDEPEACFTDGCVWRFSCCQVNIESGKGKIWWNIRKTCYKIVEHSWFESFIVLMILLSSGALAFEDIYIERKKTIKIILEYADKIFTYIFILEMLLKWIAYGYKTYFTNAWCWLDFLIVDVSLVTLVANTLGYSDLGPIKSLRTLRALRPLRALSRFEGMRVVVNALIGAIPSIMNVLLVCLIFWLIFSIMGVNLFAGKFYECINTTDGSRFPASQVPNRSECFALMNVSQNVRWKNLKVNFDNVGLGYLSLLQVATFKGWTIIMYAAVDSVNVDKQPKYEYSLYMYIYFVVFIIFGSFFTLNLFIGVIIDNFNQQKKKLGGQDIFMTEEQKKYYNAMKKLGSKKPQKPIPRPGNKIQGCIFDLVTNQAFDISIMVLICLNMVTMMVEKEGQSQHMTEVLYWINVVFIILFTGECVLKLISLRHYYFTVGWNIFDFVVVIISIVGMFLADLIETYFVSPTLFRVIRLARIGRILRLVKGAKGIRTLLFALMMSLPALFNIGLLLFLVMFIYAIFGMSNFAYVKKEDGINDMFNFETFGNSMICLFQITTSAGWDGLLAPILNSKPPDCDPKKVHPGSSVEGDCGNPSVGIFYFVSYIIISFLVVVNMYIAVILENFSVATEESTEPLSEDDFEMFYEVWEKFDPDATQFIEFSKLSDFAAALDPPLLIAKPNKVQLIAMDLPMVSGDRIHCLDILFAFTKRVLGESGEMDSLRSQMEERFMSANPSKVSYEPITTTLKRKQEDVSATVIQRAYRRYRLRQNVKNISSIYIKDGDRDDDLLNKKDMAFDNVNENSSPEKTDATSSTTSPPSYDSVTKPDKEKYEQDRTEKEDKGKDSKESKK

Turning to `COc1cc([C@H]2C[C@@H]2C2CC2)c(F)cc1-n1c(=O)ccc2cc(S(=O)(=O)Nc3ccon3)ccc21` (atropisomer, axis not shown; (P)) [Example 31, (P)-1-(4-((1R,2S)-[1,1′-bi(cyclopropan)]-2-yl)-5-fluoro-2-methoxyphenyl)-N-(isoxazol-3-yl)-2-oxo-1,2-dihydroquinoline-6-sulfonamide], the IC50 in series [1] is 9 nM.
In the case of `COc1cc([C@@H]2C[C@H]2C(F)(F)F)c(F)cc1-n1c(=O)ccc2cc(S(=O)(=O)Nc3ncns3)ccc21` (atropisomer, axis not shown; (P)) [Example 34, (P)-1-(5-fluoro-2-methoxy-4-((1R,2R)-2-(trifluoromethyl)cyclopropyl)phenyl)-2-oxo-N-(1,2,4-thiadiazol-5-yl)-1,2-dihydroquinoline-6-sulfonamide], the IC50 in series [1] turned out to be 5 nM.
Regarding `COc1cc([C@@H]2C[C@H]2C(F)(F)F)c(F)cc1-n1c(=O)ccc2cc(S(=O)(=O)Nc3ncco3)ccc21` (atropisomer, axis not shown; (P)) [Example 35, (P)-1-(5-fluoro-2-methoxy-4-((1R,2R)-2-(trifluoromethyl)cyclopropyl)phenyl)-N-(oxazol-2-yl)-2-oxo-1,2-dihydroquinoline-6-sulfonamide], the IC50 in series [1] turned out to be 11 nM.
In the case of `COc1cc([C@H]2C[C@@H]2C(F)(F)F)c(F)cc1-n1c(=O)ccc2cc(S(=O)(=O)Nc3ncco3)ccc21` (atropisomer, axis not shown; (P)) [Example 36, (P)-1-(5-fluoro-2-methoxy-4-((1S,2S)-2-(trifluoromethyl)cyclopropyl)phenyl)-N-(oxazol-2-yl)-2-oxo-1,2-dihydroquinoline-6-sulfonamide], the IC50 in series [1] is 6 nM.
In the case of `COc1cc([C@H]2C[C@@H]2C(F)(F)F)c(C#N)cc1-n1c(=O)ccc2cc(S(=O)(=O)Nc3ccon3)ccc21` (atropisomer, axis not shown; (P)) [Example 37, (P)-1-(5-cyano-2-methoxy-4-((1S,2S)-2-(trifluoromethyl)cyclopropyl)phenyl)-N-(isoxazol-3-yl)-2-oxo-1,2-dihydroquinoline-6-sulfonamide], in series [1], the IC50 was 7 nM.
For `COc1cc([C@@H]2C[C@H]2C(F)(F)F)c(F)cc1-n1c(=O)ccc2cc(S(=O)(=O)Nc3nncs3)ccc21` (atropisomer, axis not shown; (P)) [Example 40, (P)-1-(5-fluoro-2-methoxy-4-((1R,2R)-2-(trifluoromethyl)cyclopropyl)phenyl)-2-oxo-N-(1,3,4-thiadiazol-2-yl)-1,2-dihydroquinoline-6-sulfonamide], in series [2], the “CYP3A4 mRNA Induct Hu 10 uM POC” value came out at 10.79%.
Regarding `COc1cc([C@@H]2C[C@H]2C(F)(F)F)c(F)cc1-n1c(=O)cc(F)c2cc(S(=O)(=O)Nc3ccon3)ccc21` (atropisomer, axis not shown; (P)) [Example 44, (P)-4-fluoro-1-(5-fluoro-2-methoxy-4-((1R,2R)-2-(trifluoromethyl)cyclopropyl)phenyl)-N-(isoxazol-3-yl)-2-oxo-1,2-dihydroquinoline-6-sulfonamide], in series [1], the half-inhibitory concentration (IC50) amounted to 5 nM.
Consider `COc1cc([C@@H]2C[C@H]2C(F)(F)F)ccc1-n1c(=O)ccc2cc(S(=O)(=O)Nc3ccon3)c(F)cc21` (atropisomer, axis not shown; (P)) [Example 47, (P)-7-fluoro-N-(isoxazol-3-yl)-1-(2-methoxy-4-((1R,2R)-2-(trifluoromethyl)cyclopropyl)phenyl)-2-oxo-1,2-dihydroquinoline-6-sulfonamide], for which the IC50 in series [1] was 12 nM.
On the same count and under the same terms, then `COc1cc([C@H]2C[C@@H]2C(F)(F)F)ccc1-n1c(=O)ccc2cc(S(=O)(=O)Nc3ccon3)c(F)cc21` (atropisomer, axis not shown; (P)) [Example 48, (P)-7-fluoro-N-(isoxazol-3-yl)-1-(2-methoxy-4-((1S,2S)-2-(trifluoromethyl)cyclopropyl)phenyl)-2-oxo-1,2-dihydroquinoline-6-sulfonamide], with 11 nM.
For the compound `COc1cc([C@@H]2C[C@H]2C(F)(F)F)c(F)cc1-n1c(=O)ccc2cc(S(=O)(=O)Nc3ccon3)ccc21` (racemic) [Example 3, trans-1-(5-fluoro-2-methoxy-4-(2-(trifluoromethyl)cyclopropyl)phenyl)-N-(isoxazol-3-yl)-2-oxo-1,2-dihydroquinoline-6-sulfonamide], in series [1], the IC50 was 23 nM.
Turning to `COc1cc([C@H]2C[C@@H]2C(F)(F)F)c(Cl)cc1-n1c(=O)ccc2cc(S(=O)(=O)Nc3cccnn3)ccc21` (single isomer, unassigned) [Example 15], the IC50 in series [1] was 14 nM.
Take `COc1cc(C2(C(F)(F)F)CC2)c(F)cc1-n1c(=O)ccc2cc(S(=O)(=O)Nc3ccon3)ccc21` (single isomer, unassigned) [Example 22, (P)-1-(5-fluoro-2-methoxy-4-(1-(trifluoromethyl)cyclopropyl)phenyl)-N-(isoxazol-3-yl)-2-oxo-1,2-dihydroquinoline-6-sulfonamide]: in series [1], the IC50 came to 14 nM.
As to `COc1cc([C@H]2C[C@@H]2C(F)(F)F)c(C)cc1-n1c(=O)ccc2cc(S(=O)(=O)Nc3ccon3)ccc21` (single isomer, unassigned) [Example 27], in series [1], the IC50 was 13 nM.
For `COc1cc(C2(C(F)(F)F)CC2)c(F)cc1-n1c(=O)ccc2cc(S(=O)(=O)Nc3ccon3)ccc21` (single isomer, unassigned) [Example 42, (P)-1-(5-fluoro-2-methoxy-4-(1-(trifluoromethyl)cyclopropyl)phenyl)-N-(isoxazol-3-yl)-2-oxo-1,2-dihydroquinoline-6-sulfonamide], the IC50 in series [1] was 20 nM.
On to `COc1cc(C2(C(F)(F)F)CC2)c(F)cc1-n1c(=O)ccc2cc(S(=O)(=O)Nc3ccon3)ccc21` (single isomer, unassigned) [Example 43, (M)-1-(5-fluoro-2-methoxy-4-(1-(trifluoromethyl)cyclopropyl)phenyl)-N-(isoxazol-3-yl)-2-oxo-1,2-dihydroquinoline-6-sulfonamide], for which the IC50 in series [1] was determined as 1630 nM.
As for `COc1cc([C@H]2C[C@@H]2C(F)(F)F)c(F)cc1-n1c(=O)ccc2cc(S(=O)(=O)Nc3ccon3)c(F)cc21` (single isomer, unassigned) [Example 46], the IC50 in series [1] stood at 11 nM.
